From patent US5955082A, “Insecticidal factor from field peas” (Her Majesty the Queen in right of Canada, as represented by …, priority 1997, dated 1999)

Assays:
rice weevil = experiment: Flour disk feeding bioassay; format: in vivo, Sitophilus oryzae (L.)
Experimental: The rice weevil [Sitophilus oryzae (L.)] was used for all bioassays. One ml of an aqueous solution containing test material was mixed with 200 mg wheat flour. Distilled water was used as a control. Approximately 100 μl of the stirred suspension were removed and placed in the bottom of a polystyrene Petri dish, and allowed to air dry overnight at room temperature to produce the flour disks. The disks were equilibrated at 30±1° C. and 70±5% r.h. for 24 hr to stabilize the moisture content. Individual weighed disks and 5 adult beetles (1 to 7 days old, starved for 24 hrs before use) were transferred to petri dishes and kept at 30±1° C. and 70±5% r.h. for 4 days (5 replicates) before the remains of the flour disk were weighed.
Saponins, characterized by their bitter taste, foaming in aqueous solutions and haemolytic activity, are a diverse group of secondary plant metabolites containing a carbohydrate moiety (mono- or oligosaccharide) attached to either a steroid (C27) or a triterpenoid (C30). Saponins are reported to have insecticidal activity. Saponin extractions were prepared from the seeds of commercial peas (Pisum sativum). Approximately 100 g seeds were milled with a Stein mill for 5 minutes and 10 g flour was extracted with 1000 ml chloroform for 16 hrs in a Soxhlet extractor to remove pigments and lipids. Three hundred mg air-dried defatted flour was refluxed for 5 min with 60 ml 80% MeOH, then transferred to a centrifuge tube with 2×5 ml 80% MeOH rinse. The slurry extracts were centrifuged at 10,000 rpm for 10 min. The pellet was dried at room temperature for testing the residual insecticidal activities and the supernatant was evaporated to 7-8 ml under reduced pressure in a rotary evaporator at 37° C. The solution and additional 3 ml distilled water rinse were applied to a reverse phase C18 cartridge (Sep Pak, C18). The column was washed with 3×5 ml 30% MeOH then eluted with 4×5 ml MeOH. The MeOH elute was evaporated to dryness in a rotary evaporator, and then dissolved in 6 ml distilled water (at a concentration equivalent to 50 mg defatted flour per ml). This extract was used for bioassay.
One ml saponin extract (50 mg equivalent/ml) was loaded on ion exchange columns (2 ml volume) with Dowex AG-SOW [H^+ ] and Dowex AG-1 [Cl^- ] respectively. The columns were eluted with 10 ml distilled water. The water elute was evaporated to dryness in a rotary evaporator, and then dissolve in 1 ml distilled water. The water fractions were used for HPLC analysis and bioassay.
The bioassays were as described in the preceding example.

S. oryzae = experiment: Wheat flour disk feeding bioassay of lectins and trypsin inhibitors; format: in vivo; settings: for Feeding Rate (% of Control): 1% w/w in wheat flour disk; for Activity against S. oryzae: native form, 1% w/w
Experimental: Lectins and trypsin inhibitors shown in Table 20 were assayed in their native form to determine their activity against S. oryzae in the wheat flour disk bioassay.

CC1OC(OC2C(OC3C(OC4CCC5(C)C(CCC6(C)C5CC=C5C7CC(C)(C)CC(O)C7(C)CCC56C)C4(C)CO)OC(C(=O)O)C(O)C3O)OC(CO)C(O)C2O)C(O)C(O)C1O (centres unmarked) [Soyasaponin I]
Food consumption (rice weevil; 0.63 mg/g): 0.52 mg/day/insect | Food consumption, % of control (rice weevil; 0.63 mg/g): 99.8% | Food consumption (rice weevil; 1.25 mg/g): 0.44 mg/day/insect | Food consumption, % of control (rice weevil; 1.25 mg/g): 84.2% | Food consumption (rice weevil; 2.50 mg/g): 0.43 mg/day/insect | Food consumption, % of control (rice weevil; 2.50 mg/g): 82.8% | Food consumption (rice weevil; 5.00 mg/g): 0.46 mg/day/insect | Food consumption, % of control (rice weevil; 5.00 mg/g): 88.4% | Food consumption (rice weevil; 10.0 mg/g): 0.51 mg/day/insect | Food consumption, % of control (rice weevil; 10.0 mg/g): 97.9% | Activity against the test insect (rice weevil; ~0.6 mg/g and up to 10 mg/g): not active

Concanavalin A
Feeding Rate (% of Control) (S. oryzae): 82.5% | Activity against S. oryzae (S. oryzae): weakly active

Soybean trypsin inhibitor
Feeding Rate (% of Control) (S. oryzae): 98.7% | Activity against S. oryzae (S. oryzae): inactive

B1: Pea lectin: pea lectin, native form (protein, UniProt P02867 31-217; P02867 218-275, looked up)
Lectin beta chain: TETTSFLITKFSPDQQNLIFQGDGYTTKEKLTLTKAVKNTVGRALYSSPIHIWDRETGNVANFVTSFTFVINAPNSYNVADGFTFFIAPVDTKPQTGGGYLGVFNSAEYDKTTQTVAVEFDTFYNAAWDPSNRDRHIGIDVNSIKSVNTKSWKLQNGEEANVVIAFNAATNVLTVSLTYPNSLEEEN
Lectin alpha chain: VTSYTLSDVVSLKDVVPEWVRIGFSATTGAEYAAHEVLSWSFHSELSGTSSSKQAADA
Feeding Rate (% of Control) (S. oryzae): 71.4% | Activity against S. oryzae (S. oryzae): weakly active
